According to the supplement of paper PMC10307832:

Key:
Experiment in all cases: relative viability (nuclei count vs DMSO), 5 days (fraction); higher = more cells survive
Kobe2602 + OSI-027 = compound: C1=CC(=CC=C1NC(=S)NNC2=C(C=C(C=C2[N+](=O)[O-])C(F)(F)F)[N+](=O)[O-])F [Kobe2602] + COc1cccc2cc(-c3nc([C@H]4CC[C@H](C(=O)O)CC4)n4ncnc(N)c34)[nH]c12 [OSI-027] (partner 0.5 µM)
In short: (§1)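 Cells from lung cancer lines were seeded into 1536-well plates and, one day later, dosed by pin tool. Treatments were either a single drug or a fixed dose of an anchor drug with five library-drug doses (not always all listed) in √10 steps. After 5 days, nuclei were stained in a one-step fixation (final 0.05% Triton X-100, 1% formaldehyde, 1 ug/ml Hoechst) and counted on 4× images, and relative viability is the treated-to-vehicle nuclei ratio, as the median of duplicate plates.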

Zosuquidar + Crizotinib = compound: O[C@@H](COc1cccc2ncccc12)CN1CCN([C@@H]2c3ccccc3[C@@H]3[C@H](c4ccccc42)C3(F)F)CC1 [Zosuquidar] + C[C@@H](Oc1cc(-c2cnn(C3CCNCC3)c2)cnc1N)c1c(Cl)ccc(F)c1Cl [Crizotinib] (partner 1 µM)
In short: as §1

Zosuquidar + Vorinostat = compound: O[C@@H](COc1cccc2ncccc12)CN1CCN([C@@H]2c3ccccc3[C@@H]3[C@H](c4ccccc42)C3(F)F)CC1 [Zosuquidar] + O=C(CCCCCCC(=O)Nc1ccccc1)NO [Vorinostat] (partner 1 µM)
In short: as §1

[1] = compound: COc1cc2nccc(Oc3ccc(NC(=O)C4(C(=O)Nc5ccc(F)cc5)CC4)cc3)c2cc1OC [Cabozantinib] + Cc1cc(Nc2cc(N3CCN(C)CC3)nc(Sc3ccc(NC(=O)C4CC4)cc3)n2)n[nH]1 [Tozasertib] (partner 0.1 µM)
In short: as §1

Cell Line | relative viability (Kobe2602 + OSI-027; first compound 0.2 µM) | relative viability (Kobe2602 + OSI-027; first compound 0.6325 µM) | relative viability (Kobe2602 + OSI-027; first compound 2 µM) | relative viability (Kobe2602 + OSI-027; first compound 6.325 µM) | relative viability (Kobe2602 + OSI-027; first compound 20 µM) | relative viability (Zosuquidar + Crizotinib; first compound 0.01 µM) | relative viability (Zosuquidar + Crizotinib; first compound 0.03162 µM) | relative viability (Zosuquidar + Crizotinib; first compound 0.1 µM) | relative viability (Zosuquidar + Crizotinib; first compound 0.3162 µM) | relative viability (Zosuquidar + Crizotinib; first compound 1 µM) | relative viability (Zosuquidar + Vorinostat; first compound 0.01 µM) | relative viability (Zosuquidar + Vorinostat; first compound 0.03162 µM) | relative viability (Zosuquidar + Vorinostat; first compound 0.1 µM) | relative viability (Zosuquidar + Vorinostat; first compound 0.3162 µM) | relative viability (Zosuquidar + Vorinostat; first compound 1 µM) | relative viability ([1]; first compound 0.02 µM) | relative viability ([1]; first compound 0.06325 µM) | relative viability ([1]; first compound 0.2 µM) | relative viability ([1]; first compound 0.6325 µM) | relative viability ([1]; first compound 2 µM)
NCI-H2023 | 0.394 | 0.387 | 0.346 | 0.345 | 0.278 | 0.593 | 0.679 | 0.743 | 0.741 | 0.606 | 0.529 | 0.837 | 0.596 | 0.732 | 0.541 | 0.401 | 0.437 | 0.301 | 0.232 | 0.15
NCI-H2347 | 0.425 | 0.495 | 0.403 | 0.278 | 0.571 | 0.786 | 0.75 | 0.575 | 0.794 | 0.717 | 0.531 | 0.713 | 0.499 | 0.615 | 0.56 | 0.572 | 0.526 | 0.575 |  | 0.392
LXF-289 | 0.836 | 0.836 | 0.777 | 0.879 | 0.87 | 0.768 | 0.861 | 0.799 | 0.816 | 0.876 | 0.727 | 0.759 | 0.72 | 0.788 | 0.78 | 0.206 | 0.198 | 0.171 | 0.218 | 0.208
EKVX | 0.684 | 0.68 | 0.707 | 0.659 | 0.695 | 0.951 | 1.01 | 0.883 | 0.995 | 0.705 | 0.819 | 0.736 | 0.595 | 0.691 | 0.656 | 0.422 | 0.481 | 0.364 | 0.394 | 0.314
ABC-1 | 0.582 | 0.501 |  | 0.585 | 0.628 | 1.19 | 1.17 | 1.41 | 1.31 | 1.08 | 1.17 | 1.04 | 1 | 1.13 | 0.81 | 0.194 | 0.195 | 0.265 | 0.194 | 0.218
NCI-H650 | 0.514 | 0.593 | 0.477 | 0.529 | 0.527 | 0.641 | 0.762 |  | 0.731 | 0.721 | 0.452 | 0.414 | 0.397 | 0.577 | 0.435 |  | 0.746 | 0.756 | 0.789 | 0.706
NCI-H1734 | 0.657 | 0.68 | 0.619 | 0.588 | 0.745 | 0.64 | 0.566 | 0.662 | 0.72 | 0.705 | 0.764 | 0.832 | 0.883 | 0.839 | 0.887 | 0.292 | 0.284 | 0.275 | 0.286 | 0.214
LOU-NH91 | 0.739 | 0.786 | 0.69 | 0.754 | 0.71 | 0.733 | 0.738 | 0.691 | 0.736 | 0.736 | 0.854 | 0.917 | 0.772 | 0.941 | 0.919 | 0.677 | 0.729 |  | 0.724 | 0.75
SK-MES-1 | 0.591 | 0.637 | 0.488 | 0.642 | 0.226 | 0.977 | 0.99 | 0.955 | 1.03 | 1.02 | 1.03 | 1.06 | 0.929 | 1.13 | 1.18 | 1.09 | 0.991 | 0.999 | 0.927 | 0.753
NCI-H2170 | 0.736 | 0.755 | 0.7 | 0.658 | 0.791 | 1.18 | 1.22 | 1.21 | 1.19 | 1.17 | 0.828 | 0.784 | 0.763 | 0.844 | 0.826 | 0.738 | 0.8 | 0.733 | 0.748 | 0.734
NCI-H460 | 0.662 | 0.722 | 0.695 | 0.629 | 0.558 | 0.813 | 0.906 | 1.01 | 0.916 | 1.02 | 0.658 | 0.747 | 0.687 | 0.776 | 0.739 | 0.574 | 0.57 | 0.447 | 0.356 | 0.0953
SK-LU-1 | 0.329 | 0.365 | 0.359 | 0.327 | 0.371 | 0.974 | 0.981 | 1.1 | 0.932 | 0.911 | 0.828 | 0.829 | 0.839 | 0.926 | 0.761 | 0.414 | 0.371 | 0.378 | 0.342 | 0.299
EPLC-272H | 0.3 | 0.286 | 0.289 | 0.311 | 0.32 | 0.899 | 0.901 | 0.97 | 0.813 | 0.751 | 0.464 | 0.606 | 0.399 | 0.503 | 0.74 | 0.357 | 0.338 | 0.204 | 0.295 | 0.352
A-427 | 0.508 | 0.583 | 0.399 | 0.446 | 0.476 | 0.851 | 0.911 | 0.784 | 0.957 | 0.858 | 0.86 | 0.853 | 0.836 | 0.94 | 0.511 | 0.316 | 0.201 | 0.209 | 0.213 | 0.185
